From US10519169B2, “3-(1H-pyrrolo[2,3-C]pyridin-2-yl)-1 H-pyrazolo[4,3-B]pyridines and therapeutic uses thereof” (Samumed, LLC, priority 2015, dated 2019)

How the values were obtained:
Type in all cases: cell-based
[1] = test system: Wnt activity (Sp5-Luc reporter, TCF/LEF binding sites) in SW480 colon carcinoma cells; assay: Wnt activity screening assay, Sp5-Luc reporter gene in SW480 cells; conditions: Homo sapiens; for EC50: overnight incubation; for inhibition at 10 µM: given for EC50 >10 μM, read-out: percent inhibition at 10 μM
Method in brief: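 First, hygromycin-selected SW480 Sp5-Luc reporter cells are seeded in medium with 1% fetal bovine serum and exposed overnight to compound (up to 10 μM, 0.1% DMSO). Next, luciferase signal is read by luminescence. Finally, EC50 is fitted, or percent inhibition at 10 μM is reported above 10 μM.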

SW480 colon cancer cells = assay: Cell viability assay (CellTiter-Blue), SW480 cells; conditions: Homo sapiens; for EC50: 96 h, four days, CellTiter-Blue; for inhibition at 10 µM: given for EC50 >10 μM, read-out: percent inhibition at 10 μM
Method in brief: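 SW480 cells (~2×10^3/well) exposed to compound for four days at 37 °C/5% CO2, 1:3 8-point dilutions […]. Viability read by CellTiter-Blue resazurin reduction (~3 h, Ex 560/Em 590 nm); EC50 by non-linear regression, with % inhibition at 10 μM given when EC50 >10 μM.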

[2] = test system: primary human mesenchymal stem cells (hMSCs); assay: Chondrogenesis induction in hMSCs (chondrogenic nodules); conditions: 144 h, 6 days; for EC50: concentration required to induce 50% levels of chondrogenesis vs TGF-β3, read-out: Conc (nM) of 50% TGF-β3 activity; for Emax: nodules, relative to TGF-β3 positive control (10 ng/mL), read-out: Max. Activity as % TGF-β3 activity
Procedure: Representative compounds were screened using primary human mesenchymal stem cells (hMSCs) to determine their ability to induce chondrogenesis (process by which cartilage is developed).
Primary human mesenchymal stem cells (hMSCs) were purchased from Lonza (Walkersville, Md.) and expanded in Mesenchymal Stem Cell Growth Media (Lonza). Cells between passage 3 and 6 were used for the experiments.
Each compound was dissolved in DMSO as a 10 mM stock and used to prepare compound source plates. Serial dilution (1:3, 6-point dose-response curves from 2700 nM to 10 nM) and compound transfer was performed using the ECHO 550 (Labcyte, Sunnyvale, Calif.) into 96-well clear bottom assay plates (Greiner Bio-One) with appropriate DMSO backfill for a final DMSO concentration of 0.03%. hMSCs were plated at 20,000 cells/well in 250 μL/well Incomplete Chondrogenic Induction Medium (Lonza; DMEM, dexamethasone, ascorbate, insulin-transferrin-selenium [ITS supplement], gentamycin-amphotericin [GA-1000], sodium pyruvate, proline and L-glutamine). TGF-03 (10 ng/mL) was used as a positive control for differentiation while negative control wells were treated with 75 nL DMSO for normalization and calculating EC50 values. Cells were incubated at 37° C. and 5% CO2 for 6 days. To image chondrogenic nodules, the cells were fixed using 4% formaldehyde (Electron Microscopy Sciences), and stained with 2 μg/mL Rhodamine B (Sigma-Aldrich) and 20 μM Nile Red (Sigma-Aldrich) [Johnson K., et. al, A Stem Cell-Based Approach to Cartilage Repair, Science, (2012), 336(6082), 717-721]. The nodules imaged (4 images per well at 4× magnification) by excitation at 531 nm and emission at 625 nm and quantified using the CellInsight CX5 (Thermo Scientific). Number of nodules in each well was normalized to the average of 3 DMSO treated wells on the same plate using Excel (Microsoft Inc.). The normalized averages (fold change over DMSO) of 3 replicate wells for each compound concentration were calculated. Due to solubility limitations of some of the compounds, curve fitting was incomplete leading to inaccurate EC50 determinations.
Using TGF-β3 as a positive control, the concentration of representative compounds required to induce 50% levels of chondrogenesis is reported. In addition, the maximum activity of each compound and the respective dose that each compound reached maximum chondrogenesis activity is reported.

SMILES	EC50 [1] [nM]	EC50 (SW480 colon cancer cells) [µM]	EC50 [2] [nM]	Emax [2] [%]	inhibition at 10 µM [1] [%]	inhibition at 10 µM (SW480 colon cancer cells) [%]
O=C(Nc1cncc(-c2ccc3[nH]nc(-c4cc5ccncc5[nH]4)c3n2)c1)C1CCCC1 [Compound 274, N-(5-(3-(1H-Pyrrolo[2,3-c]pyridin-2-yl)-1H-pyrazolo[4,3-b]pyridin-5-yl)pyridin-3-yl)cyclopentanecarboxamide]	2630	3.12	30	50		
Cc1ccncc1-c1ccc2[nH]nc(-c3cc4c(-c5cc(F)cc(CNS(C)(=O)=O)c5)cncc4[nH]3)c2n1 [Compound 481, N-(3-Fluoro-5-(2-(5-(4-methylpyridin-3-yl)-1H-pyrazolo[4,3-b]pyridin-3-yl)-1H-pyrrolo[2,3-c]pyridin-4-yl)benzyl)methanesulfonamide]	980	2.78	10	87		
CS(=O)(=O)NCc1cc(F)cc(-c2cncc3[nH]c(-c4n[nH]c5ccc(-c6cncc(CN7CCCCC7)c6)nc45)cc23)c1 [Compound 491, N-(3-Fluoro-5-(2-(5-(5-(piperidin-1-ylmethyl)pyridin-3-yl)-1H-pyrazolo[4,3-b]pyridin-3-yl)-1H-pyrrolo[2,3-c]pyridin-4-yl)benzyl)methanesulfonamide]	1300	1.96	10	83		
CS(=O)(=O)NCc1cc(F)cc(-c2cncc3[nH]c(-c4n[nH]c5ccc(-c6cncnc6)nc45)cc23)c1 [Compound 503, N-(3-Fluoro-5-(2-(5-(pyrimidin-5-yl)-1H-pyrazolo[4,3-b]pyridin-3-yl)-1H-pyrrolo[2,3-c]pyridin-4-yl)benzyl)methane sulfonamide]	> 10000	> 10	10	106	46.4	28.3
CS(=O)(=O)NCc1cc(F)cc(-c2cncc3[nH]c(-c4n[nH]c5ccc(-c6ccccn6)nc45)cc23)c1 [Compound 504, N-(3-Fluoro-5-(2-(5-(pyridin-2-yl)-1H-pyrazolo[4,3-b]pyridin-3-yl)-1H-pyrrolo[2,3-c]pyridin-4-yl)benzyl)methanesulfonamide]	3650	> 10	300	99		47.6
Fc1cccc(-c2cncc3[nH]c(-c4n[nH]c5ccc(C6CCNCC6)nc45)cc23)c1 [Compound 505, 3-(4-(3-Fluorophenyl)-1H-pyrrolo[2,3-c]pyridin-2-yl)-5-(piperidin-4-yl)-1H-pyrazolo[4,3-b]pyridine]	> 10000	> 10	2700	103	32.9	26
Fc1ccccc1-c1cncc2[nH]c(-c3n[nH]c4ccc(-c5cn[nH]c5)nc34)cc12 [Compound 539, 3-(4-(2-Fluorophenyl)-1H-pyrrolo[2,3-c]pyridin-2-yl)-5-(1H-pyrazol-4-yl)-1H-pyrazolo[4,3-b]pyridine]	1200	2.89		40		
Cn1cc(-c2ccc3[nH]nc(-c4cc5c(-c6cccnc6)cncc5[nH]4)c3n2)cn1 [Compound 556, 5-(1-Methyl-1H-pyrazol-4-yl)-3-(4-(pyridin-3-yl)-1H-pyrrolo[2,3-c]pyridin-2-yl)-1H-pyrazolo[4,3-b]pyridine]	7020	4.04	10	52		
